Our source for the IC50 values is US20100216767A1, “QUINAZOLINES FOR PDK1 INHIBITION” (priority 2006, published 2010).

The target of the assay is T1, PDK1 kinase (Homo sapiens, UniProt O15530).
T1 sequence (O15530 1-556): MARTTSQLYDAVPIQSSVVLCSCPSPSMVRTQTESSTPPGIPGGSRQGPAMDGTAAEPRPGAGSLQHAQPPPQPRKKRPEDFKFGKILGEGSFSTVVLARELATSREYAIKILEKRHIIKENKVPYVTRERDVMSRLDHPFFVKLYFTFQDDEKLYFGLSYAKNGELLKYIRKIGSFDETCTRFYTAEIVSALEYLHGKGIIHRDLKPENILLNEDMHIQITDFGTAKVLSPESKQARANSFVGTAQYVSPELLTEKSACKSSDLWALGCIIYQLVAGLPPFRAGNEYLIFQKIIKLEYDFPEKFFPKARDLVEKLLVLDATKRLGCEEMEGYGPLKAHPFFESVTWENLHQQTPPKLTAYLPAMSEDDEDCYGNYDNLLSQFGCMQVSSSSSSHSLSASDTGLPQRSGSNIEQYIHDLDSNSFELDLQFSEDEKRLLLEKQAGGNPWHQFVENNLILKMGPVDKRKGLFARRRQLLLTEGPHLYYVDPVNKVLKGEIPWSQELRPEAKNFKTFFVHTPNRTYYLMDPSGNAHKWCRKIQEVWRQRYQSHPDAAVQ
As to the kind of experiment: PDK1 Kinase Alpha Screen Assay. The format is biochemical. The note with it: Table 1; 10 μM ATP, 50 nM PDK1-4 peptide. Here is the method:
Reagents/Concentrations: The PDK1-4 peptide substrate, biotin-[…]-NH2, (SEQ ID NO: 1), was purchased from the Tufts University Core Facility. The final concentration of PDK1-4 peptide substrate was 50 nM. The ATP substrate (adenosine-[…] triphosphate) was purchased from Roche Diagnostics. The final concentration of ATP substrate was 10 μM. Phospho-(Ser/Thr) PKA substrate antibody was purchased from Cell Signaling Technology. The final concentration of antibody was 0.3 mg/mL. The Alpha Screen Protein A detection kit containing donor and acceptor beads was purchased from PerkinElmer Life Sciences. The final concentration of both donor and acceptor beads was 25 μg/mL. Alpha Screen was used for detection. The biotinylated-PDK1-4 peptide was phosphorylated by PDK1 kinase using the ATP substrate. The biotinylated-PDK1-4 peptide substrate was bound to the streptavidin coated donor bead. The antibody was bound to the protein A coated acceptor bead. The antibody bound to the phosphorylated form of the biotinylated PDK-1 peptide substrate, bringing the donor and acceptor beads into close proximity. Laser irradiation of the donor bead at 680 nm generated a flow of short-lived singlet oxygen molecules. When the donor and acceptor beads were in close proximity, the reactive oxygen generated by the irradiation of the donor beads initiated a luminescence/fluorescence cascade in the acceptor beads. This process led to a highly amplified signal with output in the 530-620 nm range. Assays were carried out in 50 mM Tris, pH=7.5, 10 mM MgCl2, 0.1% BSA, 0.01% Tween-20, 2 mM dithiolthreitol, 2.5% dimethyl sulfoxide. Reactions were stopped by adding 50 mM Tris, pH=7.5, 90 mM EDTA, 0.1% BSA, 0.01% Tween-20.
Procedure: To 10 μl, of PDK1-4 peptide, […] of test compound in dimethyl sulfoxide was added. PDK1 kinase and ATP were mixed, and 10 μL of the PDK1 kinase/ATP mix was added to start the reaction. The reaction was allowed to proceed for 3-18 hours. The reactions were then stopped by adding 10 μL of the EDTA-containing stop buffer. Beads were mixed with antibody, and 25 μL of the bead/antibody mix was then added to the stopped reactions. Plates were incubated at room temperature overnight to allow for detection development before being read. The assay was run in a 384-well format plate.
In the case of `N#Cc1ccc2nc(Nc3ccc(N4CCOCC4)cc3)ncc2c1` [Example 76, 2-(4-morpholinophenyl-amino)quinazoline-6-carbonitrile], the 50% inhibitory concentration (IC50) was < 5 µM. For the compound `Brc1ccc2nc(Nc3ccc(N4CCOCC4)cc3)ncc2c1` [Example 77, 6-bromo-N-(4-morpholino-phenyl)quinazolin-2-amine], the IC50 is < 5 µM. The result for `N#Cc1ccc2nc(Nc3ccc(C(N)=O)cc3)ncc2c1` [Example 78, 4-(6-cyanoquinazolin-2-ylamino)benzamide] reads < 5 µM; that for `NC(=O)c1ccc(Nc2ncc3cc(Br)ccc3n2)cc1` [Example 79, 4-(6-bromoquinazolin-2-ylamino)benzamide], < 5 µM. With `C#Cc1cc(OC)c2nc(Nc3cccc(N4CCOCC4)c3)ncc2c1` [Example 80, 6-ethynyl-8-methoxy-N-(3-morpholinophenyl)-quinazolin-2-amine] the figure was < 5 µM; with `C#Cc1ccc2nc(Nc3ccc(C(=O)N4CCOCC4)cc3)ncc2c1` [Example 81, (4-(6-ethynylquinazolin-2-ylamino)phenyl)-(morpholino)methanone], < 5 µM; with `C#Cc1ccc2nc(Nc3ccc(N4CCOCC4)c(CN(C)C)c3)ncc2c1` [Example 82, N-(3-((dimethylamino)-methyl)-4-morpholino-phenyl)-6-ethynyl-quinazolin-2-amine], < 5 µM. The result for `C#Cc1ccc2nc(Nc3cc(CN(C)C)cc(NC(C)=O)c3)ncc2c1` [Example 83, N-(3-((dimethylamino)-methyl)-5-(6-ethynyl-quinazolin-2-ylamino)-phenyl)acetamide] reads < 5 µM; that for `CC(=O)Nc1cc(CN(C)C)cc(Nc2ncc3cc(-c4nccs4)ccc3n2)c1` [Example 84, N-(3-((dimethylamino)-methyl)-5-(6-(thiazol-2-yl)quinazolin-2-ylamino)-phenyl)acetamide], < 5 µM. `C#Cc1cc2cnc(Nc3cc(CN(C)C)cc(NC(C)=O)c3)nc2cc1OC` [Example 85, N-(3-((dimethylamino)methyl)-5-(6-ethynyl-7-methoxy-quinazolin-2-ylamino)-phenyl)acetamide]: the concentration for half-maximal inhibition (IC50) was < 5 µM. The result for `C#Cc1cc(OC)c2nc(Nc3cc(CN(C)C)cc(NC(C)=O)c3)ncc2c1` [Example 86, N-(3-((dimethylamino)-methyl)-5-(6-ethynyl-8-methoxyquinazolin-2-ylamino)phenyl)acetamide] reads < 5 µM; that for `COc1cc(-c2nccs2)cc2cnc(Nc3cc(CN(C)C)cc(NC(C)=O)c3)nc12` [Example 87, N-(3-((dimethylamino)-methyl)-5-(8-methoxy-6-(thiazol-2-yl)quinazolin-2-ylamino)phenyl)acetamide], < 5 µM.

For `C#Cc1cc(OC)c2nc(Nc3cc(CN(C)C)cc(NC(C)=O)c3)ncc2c1Cl` [Example 88, N-(3-(5-chloro-6-ethynyl-8-methoxyquinazolin-2-ylamino)-5-((dimethyl-amino)methyl)phenyl)-acetamide], the IC50 is < 5 µM. With `COc1cc(Br)c(Cl)c2cnc(Nc3ccc(C(=O)NC(C)C)cc3)nc12` [Example 89, 4-(6-bromo-5-chloro-8-methoxyquinazolin-2-ylamino)-N-isopropyl-benzamide] the figure was < 5 µM; with `C#Cc1ccc2nc(Nc3cc(CN(C)C)cc(NC(C)=O)c3)ncc2c1Cl` [Example 90, N-(3-(5-chloro-6-ethynyl-quinazolin-2-ylamino)-5-((dimethylamino)methyl)-phenyl)acetamide], < 5 µM; with `CC(=O)Nc1cc(CN(C)C)cc(Nc2ncc3c(Cl)c(-c4nccs4)ccc3n2)c1` [Example 91, N-(3-(5-chloro-6-(thiazol-2-yl)quinazolin-2-ylamino)-5-((dimethyl-amino)methyl)phenyl)-acetamide], < 5 µM.

For the compound `CC(=O)Nc1cc(CN(C)C)cc(Nc2ncc3cc(-c4cncnc4)ccc3n2)c1` [Example 92, N-(3-((dimethylamino)-methyl)-5-(6-(pyrimidin-5-yl)quinazolin-2-ylamino)-phenyl)acetamide], the IC50 is < 5 µM. With `COc1ncccc1-c1ccc2nc(Nc3cc(CN(C)C)cc(NC(C)=O)c3)ncc2c1` [Example 93, N-(3-((dimethylamino)-methyl)-5-(6-(2-methoxy-pyridin-3-yl)quinazolin-2-ylamino)phenyl)acetamide] the figure was 5 to 10 µM; with `COc1ncccc1-c1cc(OC)c2nc(Nc3cc(CN(C)C)cc(NC(C)=O)c3)ncc2c1` [Example 94, N-(3-((dimethylamino)-methyl)-5-(8-methoxy-6-(2-methoxypyridin-3-yl)-quinazolin-2-ylamino)-phenyl)acetamide], 5 to 10 µM; with `COc1cc(-c2cncnc2)cc2cnc(Nc3cc(CN(C)C)cc(NC(C)=O)c3)nc12` [Example 95, N-(3-((dimethylamino)-methyl)-5-(8-methoxy-6-(pyrimidin-5-yl)-quinazolin-2-ylamino)-phenyl)acetamide], < 5 µM. With `C#Cc1cc2cnc(Nc3ccc(-c4nnn[nH]4)cc3)nc2cc1OC` [Example 96, N-(4-(1H-tetrazol-5-yl)-phenyl)-6-ethynyl-7-methoxyquinazolin-2-amine] the figure was < 5 µM. With `C#Cc1cc2cnc(Nc3ccc(-n4cnnn4)cc3)nc2cc1OC` [Example 97, N-(4-(1H-tetrozol-1-yl)phenyl)-6-ethynyl-7-methoxyquinazolin-2-amine] the figure was < 5 µM; with `C#Cc1cc2cnc(Nc3cccc(-c4nnn[nH]4)c3)nc2cc1OC` [Example 98, N-(3-(1H-tetrazol-5-yl)phenyl)-6-ethynyl-7-methoxyquinazolin-2-amine], < 5 µM; with `C#Cc1ccc2nc(Nc3ccc(N4CCOCC4)cc3)ncc2c1Cl` [Example 99, 5-chloro-6-ethynyl-N-(4-morpholinophenyl)quinazolin-2-amine], < 5 µM. For `c1csc(-c2ccc3nc(Nc4ccc(N5CCOCC5)cc4)ncc3c2)n1` [Example 100, N-(4-morpholinophenyl)-6-(thiazol-2-yl)quinazolin-2-amine], the IC50 is < 5 µM. `C#Cc1cc(OC)c2nc(Nc3ccc(N4CCOCC4)cc3)ncc2c1Cl` [Example 101, 5-chloro-6-ethynyl-8-methoxy-N-(4-morpholinophenyl)-quinazolin-2-amine]: the IC50 is < 5 µM. With `COc1cc2nc(Nc3ccc(C(=O)N4CCOCC4)c(Cl)c3)ncc2cc1Br` [Example 102, (4-(6-bromo-7-methoxy-quinazolin-2-ylamino)-2-chlorophenyl)(morpholino)-methanone] the figure was < 5 µM; with `C#Cc1cc2cnc(Nc3cccc(-n4cnnn4)c3)nc2cc1OC` [Example 103, N-(3-(1H-tetrazol-1-yl)phenyl)-6-ethynyl-7-methoxyquinazolin-2-amine], < 5 µM; with `COc1cc2nc(Nc3ccc(C(=O)N4CCOCC4)c(Cl)c3)ncc2cc1-c1nccs1` [Example 104], < 5 µM.

Take `C#Cc1ccc2nc(Nc3cc(NC(C)=O)cc(NC(C)=O)c3)ncc2c1` [Example 105, N,N′-(5-(6-ethynyl-quinazolin-2-ylamino)-1,3-phenylene)diacetamide]: the IC50 is < 5 µM. As for `C#Cc1ccc2nc(Nc3ccc(C(=O)NC(C)C)cc3)ncc2c1Cl` [Example 106, 4-(5-chloro-6-ethynyl-quinazolin-2-ylamino)-N-isopropylbenzamide], the half-inhibitory concentration (IC50) is < 5 µM.
